In ChEMBL document CHEMBL4706723, “Novel N-Heteroaryl Indazole Derivatives as LRRK2 Inhibitors for Treating Parkinson's Disease” (ACS Med Chem Lett, 2021):

Target: Leucine-rich repeat serine/threonine-protein kinase 2 (Homo sapiens, UniProt Q5S007, G2019S)
Assay: Inhibition of recombinant human GST tagged LRRK2 G2019S mutant catalytic domain (970 to 2527 residues) expressed in baculovirus expression system using fluorescein-labeled LRRKtide as substrate preincubated for 15 mins followed by substrate addition and measured after 90 mins by TR-FRET based Lanthascreen assay

Chain of Leucine-rich repeat serine/threonine-protein kinase 2 (Q5S007 whole entry G2019S, the tested form may be a part): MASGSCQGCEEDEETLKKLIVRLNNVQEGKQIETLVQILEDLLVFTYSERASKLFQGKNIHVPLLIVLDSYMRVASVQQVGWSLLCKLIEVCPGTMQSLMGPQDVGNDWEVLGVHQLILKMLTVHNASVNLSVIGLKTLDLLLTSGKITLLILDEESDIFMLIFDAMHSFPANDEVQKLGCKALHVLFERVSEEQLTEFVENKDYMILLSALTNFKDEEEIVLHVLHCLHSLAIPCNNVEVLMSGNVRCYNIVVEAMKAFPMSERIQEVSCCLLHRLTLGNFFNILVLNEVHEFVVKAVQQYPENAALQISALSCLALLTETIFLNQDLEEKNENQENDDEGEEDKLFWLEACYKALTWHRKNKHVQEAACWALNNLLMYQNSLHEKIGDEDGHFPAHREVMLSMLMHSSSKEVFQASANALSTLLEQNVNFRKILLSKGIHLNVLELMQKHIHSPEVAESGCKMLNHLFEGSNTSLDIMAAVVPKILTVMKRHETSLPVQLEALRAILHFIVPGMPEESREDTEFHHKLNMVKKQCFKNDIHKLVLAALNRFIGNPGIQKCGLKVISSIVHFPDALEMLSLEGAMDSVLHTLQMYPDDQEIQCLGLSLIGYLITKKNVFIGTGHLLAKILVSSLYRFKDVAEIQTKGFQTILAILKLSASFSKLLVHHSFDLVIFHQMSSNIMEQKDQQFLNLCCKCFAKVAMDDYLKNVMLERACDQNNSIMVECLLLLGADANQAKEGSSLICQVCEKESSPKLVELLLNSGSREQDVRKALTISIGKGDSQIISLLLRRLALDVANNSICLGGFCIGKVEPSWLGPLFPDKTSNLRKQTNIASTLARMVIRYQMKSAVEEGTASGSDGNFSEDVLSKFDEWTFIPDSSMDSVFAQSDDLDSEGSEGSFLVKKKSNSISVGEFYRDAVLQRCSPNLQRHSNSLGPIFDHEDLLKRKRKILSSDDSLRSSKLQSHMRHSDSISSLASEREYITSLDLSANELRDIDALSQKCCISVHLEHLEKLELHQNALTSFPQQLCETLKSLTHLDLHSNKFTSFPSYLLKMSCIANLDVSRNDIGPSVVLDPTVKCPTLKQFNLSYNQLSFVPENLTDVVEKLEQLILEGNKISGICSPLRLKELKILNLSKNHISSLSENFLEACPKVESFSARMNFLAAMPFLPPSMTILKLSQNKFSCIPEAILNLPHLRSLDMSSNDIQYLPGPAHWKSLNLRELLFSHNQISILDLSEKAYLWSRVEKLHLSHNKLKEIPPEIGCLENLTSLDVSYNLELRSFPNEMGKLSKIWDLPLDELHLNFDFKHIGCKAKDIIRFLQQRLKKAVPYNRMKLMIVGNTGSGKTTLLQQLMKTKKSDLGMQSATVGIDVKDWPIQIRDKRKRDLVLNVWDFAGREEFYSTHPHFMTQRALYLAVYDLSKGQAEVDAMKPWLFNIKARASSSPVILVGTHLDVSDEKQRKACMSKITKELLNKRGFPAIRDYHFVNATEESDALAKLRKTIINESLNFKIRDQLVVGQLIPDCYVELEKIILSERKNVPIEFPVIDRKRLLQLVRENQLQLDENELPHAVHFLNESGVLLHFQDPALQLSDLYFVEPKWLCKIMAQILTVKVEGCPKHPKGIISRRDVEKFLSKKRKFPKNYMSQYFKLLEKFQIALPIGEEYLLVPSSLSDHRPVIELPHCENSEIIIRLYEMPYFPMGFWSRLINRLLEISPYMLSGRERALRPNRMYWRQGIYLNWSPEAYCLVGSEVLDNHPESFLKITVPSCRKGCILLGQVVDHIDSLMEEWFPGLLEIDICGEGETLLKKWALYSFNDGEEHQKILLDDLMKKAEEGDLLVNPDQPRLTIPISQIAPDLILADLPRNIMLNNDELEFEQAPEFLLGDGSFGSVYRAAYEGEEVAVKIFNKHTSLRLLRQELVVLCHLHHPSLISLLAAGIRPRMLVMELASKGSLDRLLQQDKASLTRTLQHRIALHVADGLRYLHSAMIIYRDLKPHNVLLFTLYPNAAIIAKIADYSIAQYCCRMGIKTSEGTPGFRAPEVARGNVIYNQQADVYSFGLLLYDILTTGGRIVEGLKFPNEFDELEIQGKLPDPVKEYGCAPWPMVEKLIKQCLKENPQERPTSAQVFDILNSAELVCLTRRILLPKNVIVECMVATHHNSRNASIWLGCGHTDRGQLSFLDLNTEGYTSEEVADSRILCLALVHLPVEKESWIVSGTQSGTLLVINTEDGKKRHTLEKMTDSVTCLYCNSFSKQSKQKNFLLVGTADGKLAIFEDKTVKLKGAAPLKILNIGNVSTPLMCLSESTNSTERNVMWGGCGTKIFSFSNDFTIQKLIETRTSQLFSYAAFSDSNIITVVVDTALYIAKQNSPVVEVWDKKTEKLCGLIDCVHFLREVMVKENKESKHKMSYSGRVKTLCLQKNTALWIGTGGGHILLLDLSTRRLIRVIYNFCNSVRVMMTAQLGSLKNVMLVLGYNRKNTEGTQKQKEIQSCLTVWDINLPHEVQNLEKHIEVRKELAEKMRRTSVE

Row | Structure (SMILES) | IC50 [nM]
1 | Cn1cc(-n2ncc3cc(Cl)c(C4CCN(C5(C)CCOC5)CC4)cc32)cn1 (stereo not drawn) | < 0.625
2 | CC1(N2CCC(c3cc4c(cnn4-c4cnn(C56CC(C5)C6)c4)cc3Cl)CC2)COC1 | 0.71
3 | CC1(N2CCC(c3cc4c(cnn4-c4cnn(C56CC(C#N)(C5)C6)c4)cc3Cl)CC2)COC1 | < 0.625
